# Measured values as given in article PMC10051811, “Plasma and Cerebrospinal Fluid Concentrations of Micafungin Administered at High Doses in Critically Ill Infants with Systemic Candidiasis: A Pooled Analysis of Two Studies” (Pharmaceuticals, 2023).
# Where two headings read alike, the source gives them in different places. *1 amine or outer side, *2 acyl side, *3 side chain or, on linkers, in order; H or OH if unused. Where a SMILES comes first, the peptide text is derived from it. Bridges are numbered along the chain shown (N, C = ends). [ ]: non-standard residue; d: D form. The star is where a group is joined. hTyr(3S-OH,4S-OH,3'-OSO3H) = N[C@H](C(=O)O)[C@H](O)[C@@H](O)c1ccc(O)c(OS(=O)(=O)O)c1; Orn(4R-OH,5R-OH) = O=C([C@H](C[C@@H](O)[C@@H](O)N[*:3])N[*:1])[*:2]; Pro(3S-OH,4S-Me) = C[C@H]1CN[C@H](C(=O)O)[C@H]1O; X1 = CCCCCOc1ccc(-c2cc(-c3ccc(C(=O)*)cc3)no2)cc1; Gln(3R-OH) = NC(=O)C[C@@H](O)[C@H](N)C(=O)O; Hyp = O=C(O)[C@@H]1C[C@@H](O)CN1
# How the values were obtained:
# [1] = ref 1 (Yanni et al.), cited from earlier work
# Experimental: Yanni et al. observed an increased clearance of micafungin in infants and children: 40–80 mL/h/kg in premature infants and 20 mL/h/kg in children >4 months of age.
# [2] = cited from earlier work
# Description: This mechanism of action explains their characteristics of high specificity, even against resistant species of Candida. Micafungin is primarily eliminated via biliary excretion (90%), while the route of elimination via the kidney appears to be of minor importance in humans. Micafungin is bound to plasma proteins up to 99.5%. The binding to plasma proteins seems to be a ...
# [3] = Treatment-emergent adverse events (TEAEs) in treated infants; format: in vivo, human
# Experimental: In order to evaluate drug safety, we analyzed treatment-emergent adverse effects (TEAEs). TEAEs were defined as an adverse effect experienced any time during the study’s drug administration to 72 h after the last dose of the study drug. A reasonable possibility that the event could have been caused by the study drug was assessed by the investigators; if the relationship was missing, it was considered to be drug-related.
# rats = rats treated for 3 months or more, dose of 150 mg/day (eight times the highest recommended human dose); cited from earlier work
# [4] = Micafungin concentrations in cerebrospinal fluid of infants with Candida meningitis (HPLC); format: in vivo; settings: human, iv; for Kp at 1 h / Kp at 8 h / Kp: CSF (ratio to plasma); for Kp at 1 h: read-out: CSF/plasma ratio after 1 h; for Kp at 8 h: read-out: CSF/plasma ratio after 8 h; for Kp: read-out: CSF/plasma ratio before infusion; for level at 1 h / level at 8 h / level at -1 h: cerebrospinal fluid, HPLC; for level at 1 h: read-out: CSF values after 1 h; for level at 8 h: read-out: CSF values after 8 h; for level at -1 h: read-out: CSF values before infusion
# Experimental: Micafungin plasma and CSF concentrations were measured 1 h before and 1, 2, and 8 h after the end of the infusion. Sampling overlapped with those required for the clinical monitoring of these critical children. Blood samples were collected via heel puncture, using 0.3 mL capillary microtubes with EDTA, between Days 3 and 10 of micafungin therapy. Five minutes prior to sampling, the heel was warmed with a hot compress (40 °C), and puncture was performed using a Gentleheel incision device (Cardinal Health, Dublin, OH, USA) at alternate sites per timepoint. Blood picked up was centrifuged at 3000× g, and the plasma residue was stored at 4 °C until analyzed within 6 h or frozen at −20 °C and analyzed within 7 days, as previously reported. Drug concentrations were measured via high-performance liquid chromatography (HPLC). An HPLC method with a diode array detector was validated to fine-tune the measurement on small amounts of plasma (0.3 mL whole blood). […]
# [5] = Micafungin plasma pharmacokinetics in neonates and young infants (HPLC); format: in vivo, human; settings: for level at 1 h: read-out: Plasma values after 1 h; for level at 8 h: read-out: Plasma values after 8 h; for level at -1 h: read-out: Plasma values before infusion
# Experimental: The dosage was formulated as a 2 mg/mL solution in 0.9% saline solution and administered intravenously over 1 h once daily. Infants who died within the first 48 h and those with acute or chronic hepatic diseases and/or known hypersensitivity to echinocandins were excluded. Each study with specific inclusion/exclusion criteria and definitions has been described in detail elsewhere.
# Micafungin plasma and CSF concentrations were measured 1 h before and 1, 2, and 8 h after the end of the infusion. Sampling overlapped with those required for the clinical monitoring of these critical children. Blood samples were collected via heel puncture, using 0.3 mL capillary microtubes with EDTA, between Days 3 and 10 of micafungin therapy. Five minutes prior to sampling, the heel was warmed with a hot compress (40 °C), and puncture was performed using a Gentleheel incision device (Cardinal Health, Dublin, OH, USA) at alternate sites per timepoint. Blood picked up was centrifuged at 3000× g, and the plasma residue was stored at 4 °C until analyzed within 6 h or frozen at −20 °C and analyzed within 7 days, as previously reported. Drug concentrations were measured via high-performance liquid chromatography (HPLC). An HPLC method with a diode array detector was validated to fine-tune the measurement on small amounts of plasma (0.3 mL whole blood).
# Moreover, we assessed the optimal dosage to obtain systemic drug exposure equivalent to that considered to be effective in adult patients. Systemic drug exposure was assessed via the area under the curve for 24 h (AUC0–24), the plasma clearance (CL), and the half-life. Results were stratified according to chronological age.
# [6] = rabbit model of neonatal HCME; highest concentrations within meninges and choroid; ref 2 (Hope et al.); cited from earlier work
# Description: In extremely low-birth-weight infants (<1 kg at birth) with invasive candidiasis, the probability of the central nervous system involvement during infection varies from 45% to 63% of cases. Micafungin concentration values in CSF are difficult to obtain if an external shunt has not been placed previously. Moreover, interpreting these values in vivo is not easy, considering that the fungal involvement of the central nervous system in neonatal age is typically hematogenous Candida meningoencephalitis (HCME). Hope et al. studied the pharmacokinetics and pharmacodynamics of micafungin in a r ...
# [7] = 7 mg/kg/day, Patient 1, dose 7 mg/kg/day iv
# [8] = 8 mg/kg/day, Patient 3, dose 8 mg/kg/day iv
# [9] = 10 mg/kg/day, Patient 1, dose 10 mg/kg/day iv
# [10] = 10 mg/kg/day, Patient 2, dose 10 mg/kg/day iv
# [11] = 15 mg/kg/day, Patient 2, dose 15 mg/kg/day iv
# [12] = human, iv, 7 mg/kg/day, Patient 1, dose 7 mg/kg/day iv, HPLC
# [13] = human, iv, 8 mg/kg/day, Patient 3, dose 8 mg/kg/day iv, HPLC
# [14] = human, iv, 10 mg/kg/day, Patient 1, dose 10 mg/kg/day iv, HPLC
# [15] = human, iv, 10 mg/kg/day, Patient 2, dose 10 mg/kg/day iv, HPLC
# [16] = human, iv, 15 mg/kg/day, Patient 2, dose 15 mg/kg/day iv, HPLC
smiles,measurement,setting,value
"CCCCCOc1ccc(-c2cc(-c3ccc(C(=O)N[C@H]4C[C@@H](O)[C@@H](O)NC(=O)[C@@H]5[C@@H](O)[C@@H](C)CN5C(=O)[C@H]([C@H](O)CC(N)=O)NC(=O)[C@H]([C@H](O)[C@@H](O)c5ccc(O)c(OS(=O)(=O)O)c5)NC(=O)[C@@H]5C[C@@H](O)CN5C(=O)[C@H]([C@@H](C)O)NC4=O)cc3)no2)cc1 [micafungin] (X1-[Orn(4R-OH,5R-OH)]T[Hyp][hTyr(3S-OH,4S-OH,3'-OSO3H)][Gln(3R-OH)][Pro(3S-OH,4S-Me)]; lactam 1-C)",clearance,[1]; children >4 months of age,0.333 mL/min/kg
same,clearance,[1]; premature infants,0.667 to 1.33 mL/min/kg
same,Bound to plasma proteins,[2],up to 99.5%
same,Elimination via biliary excretion,[2]; humans,90%
same,Patients with overall treatment-emergent adverse events (TEAEs),"[3]; 53 infants, 8-15 mg/kg/day iv, thirty-four patients",64.2%
same,Patients with transient hypertransaminasaemia,"[3]; 53 infants, one patient, drug-related TEAE",1.9%
same,Drug-related TEAEs (not serious),"[3]; 53 infants, three TEAEs",5.7%
same,"TEAEs leading to death (septic shock, not drug-related)","[3]; 53 infants, three cases",5.7%
same,Patients with transiently increased levels of gamma-glutamyltransferase,"[3]; 53 infants, two patients, drug-related TEAE",3.8%
same,Serious adverse events related to the therapy,[3]; high doses 8–15 mg/kg/day in neonates and infants,no serious adverse events
same,Hepatotoxicity finding in rats,rats,development of hepatocellular tumors
same,Kp at 1 h,[4]; [7],0.01
same,Kp at 8 h,[4]; [7],0.02
same,Kp,[4]; [7],0.05
same,Kp at 1 h,[4]; [8],0.06
same,Kp at 8 h,[4]; [8],0.08
same,Kp,[4]; [8],0.22
same,Kp at 1 h,[4]; [9],0.06
same,Kp at 8 h,[4]; [9],0.19
same,Kp,[4]; [9],0.38
same,Kp at 1 h,[4]; [10],0.03
same,Kp at 8 h,[4]; [10],0.03
same,Kp,[4]; [10],0.06
same,Kp at 1 h,[4]; [11],0.05
same,Kp at 8 h,[4]; [11],0.07
same,Kp,[4]; [11],0.16
same,level at 1 h,[4]; [7],150 ng/mL
same,level at 8 h,[4]; [7],150 ng/mL
same,level at -1 h,[4]; [7],150 ng/mL
same,level at 1 h,[4]; [8],1700 ng/mL
same,level at 8 h,[4]; [8],1300 ng/mL
same,level at -1 h,[4]; [8],2000 ng/mL
same,level at 1 h,[4]; [9],1230 ng/mL
same,level at 8 h,[4]; [9],1230 ng/mL
same,level at -1 h,[4]; [9],1230 ng/mL
same,level at 1 h,[4]; [10],500 ng/mL
same,level at 8 h,[4]; [10],300 ng/mL
same,level at -1 h,[4]; [10],400 ng/mL
same,level at 1 h,[4]; [11],1100 ng/mL
same,level at 8 h,[4]; [11],800 ng/mL
same,level at -1 h,[4]; [11],900 ng/mL
same,half-life,"[5]; age 0 to ≤28 days (n = 16), 8-15 mg/kg/day iv, mean ± SD, SD",13.5 ± 7.6 h
same,Clearance/weight,"[5]; age >28 days ≤120 days (n = 23), 8-15 mg/kg/day iv, mean ± SD, SD",0.6 ± 0.167 mL/min/kg
same,level at 1 h,[5]; [12],15600 ng/mL
same,level at 8 h,[5]; [12],8900 ng/mL
same,level at -1 h,[5]; [12],2900 ng/mL
same,level at 1 h,[5]; [13],27000 ng/mL
same,level at 8 h,[5]; [13],16800 ng/mL
same,level at -1 h,[5]; [13],9120 ng/mL
same,level at 1 h,[5]; [14],21700 ng/mL
same,level at 8 h,[5]; [14],6580 ng/mL
same,level at -1 h,[5]; [14],3200 ng/mL
same,level at 1 h,[5]; [15],17400 ng/mL
same,level at 8 h,[5]; [15],8900 ng/mL
same,level at -1 h,[5]; [15],6700 ng/mL
same,level at 1 h,[5]; [16],21900 ng/mL
same,level at 8 h,[5]; [16],12200 ng/mL
same,level at -1 h,[5]; [16],5800 ng/mL
same,clearance,"[5]; human, iv, age 0 to ≤28 days (n = 16), 8-15 mg/kg/day iv over 1 h once daily, HPLC, mean ± SD, SD, read-out: Clearance (converted)",1.2 mL/min
same,clearance,"[5]; human, iv, age 0 to ≤28 days (n = 16), 8-15 mg/kg/day iv, mean ± SD, SD, read-out: Clearance/weight (converted)",0.6 mL/min/kg
same,clearance,"[5]; human, iv, age >28 days ≤120 days (n = 23), 8-15 mg/kg/day iv over 1 h once daily, HPLC, mean ± SD, SD, read-out: Clearance (converted)",1.45 mL/min
same,half-life,"[5]; human, iv, age >28 days ≤120 days (n = 23), 8-15 mg/kg/day iv, mean ± SD, SD, read-out: Half-life (converted)",13.4 ± 4.3 h
same,clearance,"[5]; human, iv, age >120 days (n = 13), 8-15 mg/kg/day iv over 1 h once daily, HPLC, mean ± SD, SD, read-out: Clearance (converted)",1.82 mL/min
same,clearance,"[5]; human, iv, age >120 days (n = 13), 8-15 mg/kg/day iv, mean ± SD, SD, read-out: Clearance/weight (converted)",0.467 mL/min/kg
same,half-life,"[5]; human, iv, age >120 days (n = 13), 8-15 mg/kg/day iv, mean ± SD, SD, read-out: Half-life (converted)",14.4 ± 4.2 h
same,AUC(0-t),"[5]; human, iv, plasma AUC0–24, age 0 to ≤28 days (n = 16), 8-15 mg/kg/day iv, mean ± SD, SD",259 ± 92.7 µg·h/mL
same,AUC(0-t),"[5]; human, iv, plasma AUC0–24, age >28 days ≤120 days (n = 23), 8-15 mg/kg/day iv, mean ± SD, SD",237 ± 63.9 µg·h/mL
same,AUC(0-t),"[5]; human, iv, plasma AUC0–24, age >120 days (n = 13), 8-15 mg/kg/day iv, mean ± SD, SD",346 ± 145 µg·h/mL
same,Detection of micafungin within the CSF,[6],not reliably detected
